Each structure is given as a SMILES string.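 Dose response: 5 concentrations. Exposure: 48 h. Format: 96-well plates. Endpoint: linear interpolation; highest concentration if not reached. Abbreviation: GI50, concentration required for 50% inhibition of growth.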 Active and inactive are the calls of the source. Rule as the data show it: active = GI50 up to about 1.1 µM and inactive = higher.

Common to all, as to assay: inhibition of tumour cell growth, NCI panel, 48 h
In assay [1] the test system is 786-0.
Assay [2] deals with A498.
Assay [3] has as its system DU-145.
The test system of assay [4] is HL-60.
In assay [5] the test system is HT-29.
Assay [6] relates to MDA-MB-231.
Assay [7] relates to MDA-MB-435.
For assay [8], the system named is Malme-3M.
Assay [9] has as its system NCI-H460.
Assay [10] has as its system OVCAR-3.
Assay [11] has as its system OVCAR-4.
In assay [12] the test system is OVCAR-8.
Assay [13] has as its system PC-3.
Assay [14] concerns SF-268.
Assay [15] concerns SK-MEL-5.
Assay [16] deals with SK-OV-3.
Assay [17] relates to SNB-75.
For assay [18], the system named is UACC-257.
Assay [19] has as its system UO-31.
Assay [20] concerns M14.

For the compound `NNC(=O)CC(=O)Nc1ccccc1Cl`, the GI50 in assay [1], in assay [2], in [3], in assay [4], in [5] and in [6] was > 100 µM (inactive) throughout. Besides, the GI50 in [7], in assay [8], in assay [9], in assay [10], in [11] and in assay [12] was > 100 µM (inactive) throughout. Moreover, the GI50 in assay [13], in assay [14], in assay [15], in [16], in assay [17] and in assay [18] was > 100 µM (inactive) throughout. In addition, the GI50 in assay [19] is > 100 µM (inactive).

In the case of `CC(=O)N(C(C)=O)n1c(Cc2ccc(Cl)cc2)nn(C(C)=O)c1=O`, the GI50 in assay [1], in assay [2], in assay [3], in [4], in assay [5] and in assay [20] was > 100 µM (inactive) each time. Moreover, the GI50 in [6], in assay [7], in assay [8], in assay [9], in assay [10] and in assay [11] was > 100 µM (inactive) throughout. In addition, the GI50 in assay [12], in assay [13], in assay [14], in assay [15], in assay [16] and in [17] was > 100 µM (inactive) each time. The GI50 in assay [19] was > 100 µM (inactive).

`CC(C)(Cl)C(Br)CC/C(=C/CBr)CBr.CC(C)(Cl)C(Br)CC/C(=C\CBr)CBr` (configuration not stated): the GI50 in [1] is 1.59 µM (inactive); in assay [2], 8.63 µM (inactive); in assay [3], 8.05 µM (inactive); in assay [4], 0.757 µM (active); in [5], 1.95 µM (inactive); in [20], 2 µM (inactive). For the same compound, the GI50 in assay [6] is 1.89 µM (inactive); in [7] it was 1.87 µM (inactive); in assay [8], 1.78 µM (inactive); in [9] it was 3.61 µM (inactive); in assay [10] it was 2.45 µM (inactive); in assay [11], 2.25 µM (inactive). In addition, the GI50 is 3.01 µM (inactive) in [12]; 7.45 µM (inactive) in assay [13]; 2.14 µM (inactive) in assay [14]; 2.87 µM (inactive) in assay [15]; 15 µM (inactive) in assay [16]; 2.48 µM (inactive) in assay [17]. Further, the GI50 was 4.37 µM (inactive) in assay [18] and 1.62 µM (inactive) in assay [19].

As for `C(CCCCc1nnc(N2CCCCC2)o1)CCCc1nnc(N2CCCCC2)o1`, the GI50 in assay [1], in assay [2], in [3], in [4], in assay [5] and in assay [20] was > 100 µM (inactive) each time. The GI50 in assay [6], in assay [7], in [8], in assay [9], in [10] and in assay [11] was > 100 µM (inactive) in each case. Also, the GI50 in assay [12], in assay [13], in assay [14], in assay [15], in [16] and in assay [17] was > 100 µM (inactive) throughout. For the same compound, the GI50 in assay [18] and in assay [19] was > 100 µM (inactive) throughout.

In the case of `Cc1c(CCN2CCOCC2)c(N2CCOCC2)n2c(nc3ccccc32)c1C#N`, the GI50 in [1] is 8.95 µM (inactive); in [2], 6.31 µM (inactive); in assay [3], > 10 µM (inactive); in assay [4], > 10 µM (inactive); in [5], > 10 µM (inactive); in assay [20], > 10 µM (inactive). For the same compound, the GI50 in [6], in assay [7], in assay [8], in assay [9], in assay [10] and in assay [11] was > 10 µM (inactive) each time. For the same compound, the GI50 in assay [12], in [13], in assay [14], in assay [15], in [16] and in assay [17] was > 10 µM (inactive) in each case. In addition, the GI50 in assay [18] and in assay [19] was > 10 µM (inactive) each time.

Turning to `Cn1c2ccccc2c2cc(N3CCCC3)c3c(c21)C(=O)N(c1ccccc1)C3=O`, the GI50 was 33.8 µM (inactive) in [1]; > 100 µM (inactive) in assay [2]; > 100 µM (inactive) in assay [3]; > 100 µM (inactive) in assay [4]; > 100 µM (inactive) in assay [5]; > 100 µM (inactive) in [20]. Also, the GI50 in assay [6] was 66.4 µM (inactive); in assay [7] it was > 100 µM (inactive); in [8] it was > 100 µM (inactive); in assay [9], > 100 µM (inactive); in [10] it was > 100 µM (inactive); in [11], 38.9 µM (inactive). Further, the GI50 in assay [12] was > 100 µM (inactive); in assay [13], > 100 µM (inactive); in assay [14], 88.1 µM (inactive); in assay [15] it was > 100 µM (inactive); in assay [16] it was 58.9 µM (inactive); in assay [17], 38.4 µM (inactive). The GI50 in assay [18] and in assay [19] was > 100 µM (inactive) each time.

Turning to `FC(F)(F)c1cc(N(C2c3ccccc3C=Cc3ccccc32)P(Cl)Cl)cc(C(F)(F)F)c1`, the GI50 in [1] is 16.8 µM (inactive); in assay [2], 26.9 µM (inactive); in [3], 19.3 µM (inactive); in assay [4], 20 µM (inactive); in assay [5], 24.5 µM (inactive); in assay [20], 22.8 µM (inactive). The GI50 is 18.6 µM (inactive) in assay [6]; 21.8 µM (inactive) in assay [7]; 17.5 µM (inactive) in assay [8]; 16.4 µM (inactive) in assay [10]; 18.9 µM (inactive) in assay [11]; 17.6 µM (inactive) in assay [12]. The GI50 is 22.7 µM (inactive) in [13]; 17.2 µM (inactive) in assay [14]; 18.1 µM (inactive) in assay [15]; 25.4 µM (inactive) in [16]; 19.3 µM (inactive) in [17]; 18.3 µM (inactive) in [18]. The GI50 in assay [19] is 17.6 µM (inactive).

On to `CN(Cc1cnc2nc(N)nc(N)c2n1)c1ccc(C(=O)NCCS(=O)(=O)O)cc1`, for which the GI50 in assay [1], in assay [2], in [3], in [4], in assay [5] and in assay [20] was > 100 µM (inactive) throughout. Moreover, the GI50 in [6], in [7], in assay [8], in assay [9], in [10] and in assay [11] was > 100 µM (inactive) throughout. The GI50 in assay [12], in assay [13], in assay [14], in assay [15], in assay [16] and in assay [17] was > 100 µM (inactive) each time. Further, the GI50 in assay [18] and in assay [19] was > 100 µM (inactive) in each case.

For `NCC1OC(OC2C(N)CC(N)C(O)C2OC2OC(CO)C(O)C2O)C(N)C(O)C1O` (configuration not stated), the GI50 in [1] is > 50 µM (inactive); in [2] it was > 50 µM (inactive); in assay [3] it was > 100 µM (inactive); in [4] it was > 100 µM (inactive); in assay [5] it was > 50 µM (inactive); in [20] it was > 50 µM (inactive). In addition, the GI50 in assay [6] was > 50 µM (inactive); in assay [7], > 100 µM (inactive); in [8], > 100 µM (inactive); in [9], > 50 µM (inactive); in assay [10], > 100 µM (inactive); in assay [11], > 100 µM (inactive). The GI50 in assay [12] was > 50 µM (inactive); in [13] it was > 50 µM (inactive); in assay [14] it was > 100 µM (inactive); in assay [15], > 50 µM (inactive); in [16], > 50 µM (inactive); in assay [17] it was 27.8 µM (inactive). The results for the GI50 in [18] and in [19] were > 50 µM (inactive) and > 100 µM (inactive), respectively.

With `C[N+](C)(CCNc1ccc(NCC[N+](C)(C)Cc2ccc([N+](=O)[O-])cc2)c2c1C(=O)c1ccccc1C2=O)Cc1ccc([N+](=O)[O-])cc1`, the GI50 in assay [1], in assay [2], in [3], in assay [4], in [5] and in [20] was > 100 µM (inactive) each time. Moreover, the GI50 in assay [6], in assay [7], in assay [8], in assay [9], in assay [10] and in assay [11] was > 100 µM (inactive) each time. The GI50 in assay [12], in assay [13], in assay [14], in [15], in [16] and in assay [17] was > 100 µM (inactive) throughout. The GI50 in assay [18] and in [19] was > 100 µM (inactive) throughout.

(Values after ChEMBL document CHEMBL1201862, “PubChem BioAssay data set” (2004).)
